Data set [1] has as its system subjects with SWS brain involvement and refractory epilepsy. The experiment in a line: Expanded access compassionate use program of CBD in Sturge Weber syndrome: seizure frequency and quality of life. It counts as in vivo, human. Particulars: for Week 14 (number of seizures): CBD target dose 15-25 mg/kg/day; for Decrease in seizure frequency (%): week 14 versus baseline. How it is done: “Percentage decrease in seizure frequency” is defined as the number of seizures at week 14 minus the number of seizures at baseline divided by the number of seizures at baseline multiplied by 100.
Four subjects with SWS brain involvement and refractory epilepsy were enrolled in an expanded access compassionate use program for CBD. These subjects were treated with a highly purified extract of cannabidiol (CBD) obtained from a cannabis plant. Frequency of seizures was recorded at each visit, as were reported quality of life changes, including mood, behaviour, and cognitive function.
Data were compared in the 56-day pre-treatment period, the 56-day period after starting maintenance dose (Week 14), and at most recent visit.
The participants in the study were taking at the time of entry into the study between one and four concomitant AEDs.
Patient 1 was taking leviteracetam alone. Patient 2 was taking leviteracetam, valproate, felbamate and clobazam. Patient 3 was taking valproate and topiramate. Patient 4 was taking oxycarbamazepine and lacosamide.
CBD was administered at a target dose of 15-25 mg/kg/day.
All patients entered a baseline period of 14 weeks when parents/caregivers kept prospective seizure diaries, noting all countable seizure types.
Laboratory testing for hematologic, liver, kidney function and concomitant AED levels was performed at baseline, and after every 4 weeks of CBD therapy.

For a further data set, the system named is mice. Particulars: after administration of pro-convulsant drugs or an electric current; cited from earlier work.
For data set [2], the system named is adult patients with secondary generalized epilepsy. Particulars: of eight adult patients with secondary generalized epilepsy; cited from earlier work.
In a further data set the test system is adult patients. Particulars: 200 mg/day of pure CBD, four adult patients; cited from earlier work.
The test system of data set [3] is institutionalized adult patients. Particulars: 200 mg/day of pure CBD, twelve institutionalized adult patients, open label; cited from earlier work.
For a further data set, the system named is Dravet syndrome. Particulars: treatment of Dravet syndrome, announced March 2016; cited from earlier work.
The test system of data set [4] is multiple species and models. Particulars: previous studies in animals; cited from earlier work.
For data set [5] the following is noted: in vivo; cited from earlier work.

As to `C=C(C)[C@@H]1CCC(C)=C[C@H]1c1c(O)cc(CCCCC)cc1O` [CBD, Cannabidiol], the “Week 14 (number of seizures)” value is recorded as 60 number of seizures in data set [1] (Patient 1, concomitant leviteracetam alone, baseline 67 seizures); 1 number of seizures in data set [1] (Patient 2, concomitant leviteracetam, valproate, felbamate and clobazam, baseline 6 seizures); 1 number of seizures in data set [1] (Patient 3, concomitant valproate and topiramate, baseline 10 seizures); 4 number of seizures in data set [1] (Patient 4, concomitant oxycarbamazepine and lacosamide, baseline 6 seizures). Moreover, the “Decrease in seizure frequency (%)” value was 10% in data set [1] (Patient 1, concomitant leviteracetam alone); 83% in data set [1] (Patient 2, concomitant leviteracetam, valproate, felbamate and clobazam); 90% in data set [1] (Patient 3, concomitant valproate and topiramate); 33% in data set [1] (Patient 4, concomitant oxycarbamazepine and lacosamide). The “effectiveness in the treatment of SWS” value in data set [1] (conclusion from the four patients) is listed as “effective”. Further, the “reported quality of life” value in data set [1] (patient 1) was “remained unchanged”; in data set [1] (three of the four patients (patients 2, 3 and 4)) it was “improved quality of life”. In data set [1] (three subjects (patients 2, 3 and 4)), the cognitive function result is “improvements in cognitive function”. Also, the “share of patients who benefited from a reduction in the number of seizures” value in data set [1] (treatment-resistant SWS patients, four subjects) is recorded as “three quarters”. In data set [1] (two subjects (patient 2 and 3)), the mood and behaviour result was “improvements in mood and behaviour”. Besides, the prevention of seizures result with mice was “able to prevent seizures”. Further, the “number of patients with a marked reduction of seizures” value in data set [2] is 4. In the data set with adult patients, the “patients who became seizure free” value was “two of the four patients”. Also, the “seizure frequency in the remainder of the patients” value in the data set with adult patients is “unchanged”. In data set [3], the control of seizures result is “ineffective”. Moreover, the “outcome of the Phase 3 study” value in the data set with Dravet syndrome is given as “positive results”. Further, the anticonvulsant efficacy result in data set [4] was “anticonvulsant efficacy in multiple species and models”.
As to `CCCCCc1cc(O)c2c(c1)OC(C)(C)[C@@H]1CCC(C)=C[C@@H]21` [THC, Tetrahydrocannabinol], the effect on convulsions result in data set [5] is “pro-convulsant”.
